Starred links: 1 amine or outer side, 2 acyl side, 3 side chain; linkers in the order of their positions; H or OH if unused. Positions of bridges follow the written chain, without caps; N, C: chain ends. Non-standard residues stand in square brackets, D forms with d. Residues, ends and D or L forms follow the SMILES beside them. ξ: configuration not given here. *: point of attachment. X1 = N=C1NCCC([C@H](N[*:1])C(=O)[*:2])N1; ΔAla(Z-3-ureido) = NC(=O)N/C=C(\N)C(=O)O; ξβ3hOrn = NCCCC(N)CC(=O)*; Dap = NC[C@H](N)C(=O)O
Legend:
[1] = target: T1, Solute carrier organic anion transporter family member 1B3 (Homo sapiens, UniProt Q9NPD5); conditions: chinese hamster, cho, 10 µM
T1 sequence (Q9NPD5 whole entry): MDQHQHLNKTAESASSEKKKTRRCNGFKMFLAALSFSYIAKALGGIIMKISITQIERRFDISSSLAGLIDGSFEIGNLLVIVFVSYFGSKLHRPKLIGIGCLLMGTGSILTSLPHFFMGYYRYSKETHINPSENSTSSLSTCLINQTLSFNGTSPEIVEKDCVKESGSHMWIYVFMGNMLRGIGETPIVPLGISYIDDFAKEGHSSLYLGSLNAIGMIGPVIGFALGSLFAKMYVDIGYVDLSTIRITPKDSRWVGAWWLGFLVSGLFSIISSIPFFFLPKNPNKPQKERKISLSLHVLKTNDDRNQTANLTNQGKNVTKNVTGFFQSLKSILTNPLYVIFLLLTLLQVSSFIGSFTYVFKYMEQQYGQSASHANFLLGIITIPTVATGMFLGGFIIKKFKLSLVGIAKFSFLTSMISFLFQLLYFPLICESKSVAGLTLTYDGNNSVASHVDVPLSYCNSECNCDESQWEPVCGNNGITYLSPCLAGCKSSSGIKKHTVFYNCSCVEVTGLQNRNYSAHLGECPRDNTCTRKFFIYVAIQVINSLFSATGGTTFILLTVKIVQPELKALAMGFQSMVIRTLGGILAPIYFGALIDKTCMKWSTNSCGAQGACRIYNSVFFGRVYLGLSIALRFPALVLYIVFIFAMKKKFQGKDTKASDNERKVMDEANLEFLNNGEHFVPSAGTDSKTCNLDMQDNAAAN

[2] = target: T2, Solute carrier organic anion transporter family member 1B1 (Homo sapiens, UniProt Q9Y6L6); conditions: chinese hamster, cho, 10 µM
T2 sequence (Q9Y6L6 whole entry): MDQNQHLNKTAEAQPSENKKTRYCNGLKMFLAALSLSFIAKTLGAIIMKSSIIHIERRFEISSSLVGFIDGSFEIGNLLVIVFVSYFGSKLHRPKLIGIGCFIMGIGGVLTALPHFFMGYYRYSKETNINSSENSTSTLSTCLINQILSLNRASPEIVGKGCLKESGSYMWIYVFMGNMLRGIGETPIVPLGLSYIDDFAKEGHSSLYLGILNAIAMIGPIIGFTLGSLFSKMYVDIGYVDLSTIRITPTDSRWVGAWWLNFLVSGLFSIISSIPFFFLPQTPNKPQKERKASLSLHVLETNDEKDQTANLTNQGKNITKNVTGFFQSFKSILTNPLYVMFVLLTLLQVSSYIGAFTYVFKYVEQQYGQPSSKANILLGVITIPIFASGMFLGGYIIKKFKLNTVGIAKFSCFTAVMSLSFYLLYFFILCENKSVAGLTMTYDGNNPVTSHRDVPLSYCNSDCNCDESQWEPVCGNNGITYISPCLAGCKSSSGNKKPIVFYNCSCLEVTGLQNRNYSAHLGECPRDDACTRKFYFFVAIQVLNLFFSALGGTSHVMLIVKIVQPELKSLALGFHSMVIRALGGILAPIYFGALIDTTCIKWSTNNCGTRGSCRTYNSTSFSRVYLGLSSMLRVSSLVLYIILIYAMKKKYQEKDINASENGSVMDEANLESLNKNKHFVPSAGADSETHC

Row | Structure (SMILES) | residual activity [1] [%] | residual activity [2] [%]
1 | COc1ccc(-c2coc3c(OC)c(OC)cc(O)c3c2=O)cc1 [ISOTECTORIGENIN, 7-METHYL ETHER] | 105 | 135.9
2 | COc1ccnc(C[S+]([O-])c2nc3ccc(OC(F)F)cc3[nH]2)c1OC (stereo unspecified) [PANTOPRAZOLE] | 79.12 | 81.37
3 | CCOC(=O)OC(C)OC(=O)[C@@H]1N2C(=O)[C@@H](NC(=O)[C@H](N)c3ccccc3)[C@H]2SC1(C)C.Cl (stereo partly specified) [BACAMPICILLIN HYDROCHLORIDE] | 80.61 | 46.45
4 | C[N+](C)(C)CCO.[Cl-] [CHOLINE CHLORIDE] | 113.2 | 93.68
5 | C[N+]1(C)CCCC(OC(=O)C(O)(c2ccccc2)c2ccccc2)C1.[Br-] (stereo unspecified) [MEPENZOLATE BROMIDE] | 106.1 | 121.8
6 | Cl.Cl.NCCCCN [PUTRESCINE DIHYDROCHLORIDE] | 106.7 | 110.3
7 | O=c1c(-c2cc(O)c(O)c(O)c2)coc2cc(O)c(O)c(O)c12 [IRIGENOL] | 92.26 | 71.59
8 | COc1ccc(C(c2ccc(OC)cc2)C(Cl)(Cl)Cl)cc1 [METHOXYCHLOR] | 102.3 | 114
9 | c1ccc2c(Cc3c[nH]c4ccccc34)c[nH]c2c1 [ARUNDINE] | 110.1 | 101.6
10 | C[C@@H]1NC(=O)[C@@H](N)CNC(=O)[C@H](C2CCNC(=N)N2)NC(=O)/C(=C/NC(N)=O)NC(=O)[C@H](CNC(=O)CC(N)CCCN)NC1=O.N=C1NCCC([C@@H]2NC(=O)/C(=C/NC(N)=O)NC(=O)[C@H](CNC(=O)CC(N)CCCN)NC(=O)[C@H](CO)NC(=O)[C@@H](N)CNC2=O)N1.O=S(=O)(O)O.O=S(=O)(O)O (stereo partly drawn) [CAPREOMYCIN SULFATE] (H-[Dap]S[Dap](ξβ3hOrn)[ΔAla(Z-3-ureido)][X1]; lactam 1-C) | 80.84 | 89.76
11 | O=S(=O)([O-])CCS.[Na+] [MESNA] | 97.81 | 95.36
12 | Cl.O=C(COc1ccc(Cl)cc1)N1CCN(Cc2ccc3c(c2)OCO3)CC1 [FIPEXIDE HYDROCHLORIDE] | 95 | 103.1
13 | CC(=O)O[C@H]1C[C@@H](O)C(C)(C)[C@@H]2C[C@@H](OC(C)=O)[C@]3(C)[C@H](CC[C@@]4(C)[C@@H](c5ccoc5)OC(=O)[C@H]5O[C@@]534)[C@@]12C [3-DEACETYLKHIVORIN] | 88.69 | 94.07
14 | O=C(CCCN1CCC(O)(c2ccc(Cl)cc2)CC1)c1ccc(F)cc1 [HALOPERIDOL] | 111.7 | 92.15
15 | Cc1cc(O)cc(=O)o1 | 97.35 | 87.56
16 | COc1ccc([C@H]2COc3c(ccc(O)c3OC)C2)c(OC)c1O [DUARTIN (-)] | 86.99 | 88.51
17 | Nc1ccc(C(=O)NCC(=O)O)cc1 [AMINOHIPPURIC ACID] | 94.72 | 82.43
18 | CC1=C(O)C(=O)C=C2C1=CC=C1[C@@]2(C)CC[C@@]2(C)[C@@H]3C[C@](C)(C(=O)O)CC[C@]3(C)CC[C@]12C [CELASTROL] | 90.72 | 147.4
19 | CSCC[C@H](NC=O)C(=O)N[C@@H](CC(C)C)C(=O)N[C@@H](Cc1ccccc1)C(=O)O | 120.4 | 76.72
20 | CN1CCCN=C1COC(=O)C(O)(c1ccccc1)C1CCCCC1.Cl (stereo unspecified) [OXYPHENCYCLIMINE HYDROCHLORIDE] | 103.9 | 92.1
21 | COc1ccc(/C=C/C(=O)Nc2ccccc2C(=O)O)cc1OC | 71.26 | 55.59
22 | COc1ccc(-c2cc(=O)c3c(O)c(OC)c(OC)cc3o2)cc1O [EUPATORIN] | 72.8 | 87.53
23 | CC(C[N+](C)(C)C)OC(N)=O.[Cl-] (stereo unspecified) [BETHANECHOL CHLORIDE] | 100 | 111.1
24 | COC(=O)C[C@H]1C(C)(C)[C@@H](OC(C)=O)[C@@H]2CC3=C4CC(=O)O[C@@H](c5ccoc5)[C@]4(C)CC[C@@H]3[C@@]1(C)C2=O [FISSINOLIDE] | 51.76 | 27.44

Row | Structure (SMILES) | residual activity [1] [%] | residual activity [2] [%]
25 | CC(C)N(C(=O)CCl)c1ccccc1 [PROPACHLOR] | 110.5 | 110.8
26 | O=C(C1CCCCC1)N1CC(=O)N2CCc3ccccc3C2C1 (stereo unspecified) [PRAZIQUANTEL] | 125.5 | 162.2
27 | O=C(O)[C@@H](O)[C@H](O)[C@H](O)[C@@H](O)C(=O)O [MUCIC ACID] | 98.98 | 109
28 | CCN(CC)C(=O)c1cccc(C)c1 [DIETHYLTOLUAMIDE] | 107.2 | 108.7
29 | CC(=O)/C=C\[C@@H]1[C@@]2(C)CCCC(C)(C)C2CC[C@@]1(C)O (stereo partly specified) [8-HYDROXY-15,16-BISNOR-11-LABDEN-13-ONE] | 84.33 | 71.14
30 | COc1c(-c2ccccc2)oc2c(ccc3occc32)c1=O [KARANJIN] | 124.7 | 50.39
31 | Nc1c2ccccc2nc2ccccc12 [AMINACRINE] | 80.82 | 54.19
32 | COc1cc(O)ccc1C(C)=O [ISOPEONOL] | 84.87 | 60.41
33 | CN1CCCCC1c1ccc(-c2cccnc2)nc1.Cl (stereo unspecified) [ANABASAMINE HYDROCHLORIDE] | 108.2 | 100
34 | O=C(/C=C/c1ccc(O)c(O)c1)OCCc1ccccc1 [CAFFEIC ACID PHENETHYL ESTER] | 143.5 | 254
35 | CS(=O)(=O)c1ccc([C@@H](O)[C@@H](CO)NC(=O)C(Cl)Cl)cc1 [THIAMPHENICOL] | 103.5 | 102.1
36 | Oc1c(Br)cc(Br)c2cccnc12 [BROXYQUINOLINE] | 75.68 | 57.32
37 | COc1cc(C)c2c(=O)cc(-c3ccccc3)oc2c1 [METHOXYVONE] | 102.8 | 231.1
38 | Cc1cc2cc3c(C)cc(=O)oc3c(C)c2o1 [TRIOXSALEN] | 86.89 | 103.1
39 | NCC(O)CC(=O)O (stereo not drawn) [GAMMA-AMINO-BETA-HYDROXYBUTYRIC ACID] | 106.5 | 120.5
40 | COc1cc(OC)c2ccc(=O)oc2c1 [CITROPTEN] | 105.5 | 81.95
41 | COC(=O)COc1ccc(Cl)cc1Cl [2,4-DICHLOROPHENOXYACETIC ACID, METHYL ESTER] | 110 | 116.2
42 | COc1cnc(NS(=O)(=O)c2ccc(N)cc2)nc1 | 112.9 | 233.5
43 | CC(C)CC(N(C)C)C1(c2ccc(Cl)cc2)CCC1.Cl (stereo unspecified) | 113.9 | 96.94
44 | CCCC1O[C@@H]2C[C@H]3[C@@H]4CCC5=CC(=O)C=C[C@]5(C)[C@H]4[C@@H](O)C[C@]3(C)[C@]2(C(=O)CO)O1 (stereo partly specified) [BUDESONIDE] | 73 | 43.76
45 | N=C(N)NCCC[C@@H](NC(=O)[C@@H](N)Cc1ccc(O)cc1)C(=O)O [d[-Arg-2]KYOTORPHAN ACETATE] | 98.23 | 114.8
46 | O=c1[nH]cc(F)c(=O)[nH]1 [FLUOROURACIL] | 91.17 | 86.84
47 | C=CC(N)CCC(=O)O (stereo unspecified) [VIGABATRIN] | 94.41 | 78.69
48 | CC(Oc1ccccc1)C(=O)N[C@@H]1C(=O)N2[C@@H]1SC(C)(C)[C@@H]2C(=O)[O-].[K+] (stereo partly specified) [PHENETHICILLIN POTASSIUM] | 90.72 | 83.14

— ChEMBL document CHEMBL3039007, “Structure-based identification of OATP1B1/3 inhibitors” (Mol Pharmacol, 2013)
